According to US20060252683A1, “Preparation of a peptide compound (SYRAPRO-2000) and its use for the activation of protein phosphatase-2A1 enzyme” (priority 2005, published 2006):

What was measured:
protein phosphatase-2A1 [1] = biological target: T1, protein phosphatase-2A1 (Homo sapiens, UniProt P67775); assay: Assay of purified protein phosphatase-2A1 in vitro with 32P-labeled phosphorylase a as substrate; assay type: biochemical; set-up: Protein phosphatase-2A1 purified from CD^4+ T cells as described in materials and method; endogenous in cells; host or cells: Jurkat cells; enzyme purified by DEAE Sepharose, Sephacryl S-300 HR and poly-L-lysine Agarose; conditions: highly purified enzyme from Jurkat cells
Procedure: Protein phosphatase-2A1 purified from CD^4+ T cells as described in materials and method was assayed in the presence of various concentrations of SYRAPRO-2000. 100 percent protein phosphatase-2A1 activity is equivalent to 0.005 unit. Similar result were obtained in 3 independent experiments.
The effect of synthesized SYRAPRO-2000 on purified protein phosphatase-2A1 can be determined in vitro. Protein phosphatase-2A1 can be assayed using ^32P-labeled phosphorylase a as substrate in the presence of various concentrations of SYRAPRO-2000. Protein phosphatase-2A1 is activated in the presence of SYRAPRO-2000.
Protein phosphatase-1 was assayed as described in (Cohen 1988). Protein phosphatase-2B was assayed as described in (Tung 1986). Protein phosphatase-2C was assayed as described in (Tung 1986) except Ca^2+ and calmodulin were omitted. The assay of protein phosphatases-2A1 consisted of 0.02 ml of enzyme solution in 50 mM Imidazole-Cl pH 7.2, 0.2 mM EGTA, 0.1% (v/v) 2-mercaptoethanol and 1 mg/ml bovine serum albumin (Assay Buffer), 0.01 ml of inhibitor-2 at 600 nM in Assay Buffer, 0.01 ml of protamine at 60 μg/ml in Assay Buffer or 0.01 ml of SYRAPRO-2000 at different concentrations in Assay Buffer or 0.01 ml of Assay Buffer alone, 0.02 ml of ^32P-labeled phosphorylase a at 3 mg/ml in Assay Buffer containing 15 mM caffeine. The assay components were preincubated for 10 minutes prior to initiating the reaction with ^32P-labeled phosphorylase a. One unit of protein phosphatase activity is that amount of enzyme which catalyzes the release of 1 nmol of phosphate from ^32P-labeled substrate per min at 30° C.
Jurkat cells, a human transformed CD^4+ T cell line, were grown in grown in RPMI 1680 supplemented with 5% (v/v) fetal bovine serum at 37° C. in 95% air/5% CO2 in a humidified incubator. 2.4 liters of cells were collected by centrifugation at 4200 rpm in a low speed centrifuge for 10 minutes. The cells were homogenized in 80 ml of 50 mM Imidazole-Cl pH 7.2, 2 mM EGTA, 2 mM EDTA, 0.1% (v/v) 2-mercaptoethanol, 0.2 mM PMSF, 1 mM benzamidine, 4 μg/ml aprotinin, 4 μg/ml leupeptin, 4 μg/ml pepstatin, 0.1 mM TLCK, 0.1 mM TPCK, 1 mM sodium orthovanadate and 10% (v/v) glycerol by 40 strokes in a glass hand held homogenizer. The homogenate was centrifuged at 29000 rpm in a high speed centrifuge for 30 minutes. The supernatant (i.e the extract) was collected and loaded onto a DEAE Sepharose column (1.5×6 cm) equilibrated in 25 mM Imidazole-Cl pH 7.2, 0.2 mM EGTA, 0.1% (v/v) 2-mercaptoethanol, 0.1 mM PMSF, 1 mM benzamidine and 10% (v/v) glycerol (Buffer A). The column was washed with 50 ml of Buffer and then eluted with a 200 ml linear gradient of Buffer A to Buffer A plus 0.4 M NaCl. The eluted fractions were then assayed for phosphorylase phosphatase activity in the presence of 100 nM inhibitor-2 and 10 μg/ml of protamine. Two major peaks of phosphorylase phosphatase were observed. The first and second peak represent protein phosphatase-2A0 and protein phosphatase-2A1 respectively. […] The major activity eluting as a species of apparent molecular mass 300 kDa was collected, diluted four fold in Buffer A and loaded onto a poly-L-lysine Agarose Column (1.5×4 cm) equilibrated in Buffer A. The column was washed with 50 ml of Buffer A and then eluted with a 200 ml linear gradient of Buffer A to Buffer A plus 0.5 M NaCl. The active fractions eluting at ˜0.30 M NaCl salt concentration was pooled, concentrated by vacuum dialysis and stored at ^−20° C. in 50 mM Imidazole-Cl pH 7.2, 0.2 mM EGTA in the presence of 50% (v/v) glycerol. The highly purified enzyme consisted of the characteristic subunits of protein phosphatase-2A1, namely the A, B and C subunits. […] It is difficult to determine the activity of protein phosphatase-2A1 in CD^4+ T cell extract. However, assuming that it represented about 66 percent of total type 2A protein phosphatase activity in CD^4+ T cell extract, the specific activity of the enzyme in extract was estimated to be 0.3 unit/mg. […]
Target sequence in this assay (P67775 whole entry): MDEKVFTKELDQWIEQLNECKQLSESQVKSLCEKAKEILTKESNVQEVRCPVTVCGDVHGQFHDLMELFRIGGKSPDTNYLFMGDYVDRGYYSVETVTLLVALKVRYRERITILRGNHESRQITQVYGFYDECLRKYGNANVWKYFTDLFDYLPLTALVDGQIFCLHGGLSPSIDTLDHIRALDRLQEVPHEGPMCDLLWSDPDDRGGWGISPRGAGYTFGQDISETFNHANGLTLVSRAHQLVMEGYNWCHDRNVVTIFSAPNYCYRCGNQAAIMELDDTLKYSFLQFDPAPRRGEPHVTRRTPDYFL
Target sequence in this assay (P30153 whole entry partner): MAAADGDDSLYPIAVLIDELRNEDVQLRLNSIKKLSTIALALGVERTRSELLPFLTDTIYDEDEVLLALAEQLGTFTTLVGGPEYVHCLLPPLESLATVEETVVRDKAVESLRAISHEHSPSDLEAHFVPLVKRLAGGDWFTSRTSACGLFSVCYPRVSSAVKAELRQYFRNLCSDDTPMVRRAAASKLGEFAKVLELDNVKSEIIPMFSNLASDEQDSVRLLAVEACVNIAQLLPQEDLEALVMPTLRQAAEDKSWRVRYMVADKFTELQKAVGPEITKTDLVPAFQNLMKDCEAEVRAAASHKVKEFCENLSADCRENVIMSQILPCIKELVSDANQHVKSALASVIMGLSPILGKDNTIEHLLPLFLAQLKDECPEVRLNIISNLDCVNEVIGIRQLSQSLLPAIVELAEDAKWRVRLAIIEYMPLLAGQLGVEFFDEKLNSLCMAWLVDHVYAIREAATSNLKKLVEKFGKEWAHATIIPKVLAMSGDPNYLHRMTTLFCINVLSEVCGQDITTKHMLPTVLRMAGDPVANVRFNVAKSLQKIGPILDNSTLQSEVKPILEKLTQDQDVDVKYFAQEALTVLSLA
Target sequence in this assay (P63151 whole entry partner): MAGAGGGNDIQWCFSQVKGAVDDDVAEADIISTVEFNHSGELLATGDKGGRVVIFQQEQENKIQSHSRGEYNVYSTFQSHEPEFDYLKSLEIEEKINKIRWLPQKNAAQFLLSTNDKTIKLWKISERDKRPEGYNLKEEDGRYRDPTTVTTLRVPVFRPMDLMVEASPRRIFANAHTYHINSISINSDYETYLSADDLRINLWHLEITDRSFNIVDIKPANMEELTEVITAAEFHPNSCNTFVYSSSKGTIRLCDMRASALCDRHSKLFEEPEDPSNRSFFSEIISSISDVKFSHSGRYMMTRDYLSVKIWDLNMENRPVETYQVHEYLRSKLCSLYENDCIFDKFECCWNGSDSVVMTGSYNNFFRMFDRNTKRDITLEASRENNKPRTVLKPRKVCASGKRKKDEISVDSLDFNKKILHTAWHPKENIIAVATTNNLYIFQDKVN

protein phosphatase-2A1 [2] = biological target: T1, protein phosphatase-2A1; conditions: Tung 1997; Janoo 2005; cited from earlier work
Target sequence in this assay (P67775 whole entry): as the sequence (P67775 whole entry) above

effect on protein phosphatase-2A1 from CD4+ T cells (protein phosphatase-2A1 [1]) | Molecule | activation of protein phosphatase-2A1 (protein phosphatase-2A1 [2])
– | full length HIV-1 Vpr: full length HIV-1 Vpr protein, tested in the literature | not to activate
activated | protamine [reference compound] | –
not inhibited | inhibitor-2: Protein phosphatase-1 inhibitor-2 purified from rabbit skeletal muscle (protein, UniProt P11845 2-205, looked up) Protein phosphatase inhibitor …: AASTASHRPIKGILKNKTSSTSSRVASAEQPRGSVDEELSKKSQKWDEMNILATYHPADKDYGLMKIDEPSTPYHSMIGDDDDAYSDTETTEAMTPDTLAKKLAAAEGSEPKYRIREQESSGEEDSDLSPEEREKKRQFEMKRKLHYNEGLNIKLARQLISKDLHDDEEDEEMSETADGESMNTEESNQGSTPSDQRQNKSQSS | –

Molecule | effect on protein phosphatase-2A1 from CD4+ T cells (protein phosphatase-2A1 [1]) | activation of protein phosphatase-2A1 (protein phosphatase-2A1 [2])
C=C1[C@@H](O)[C@@H]2O[C@]3(CC[C@H](/C=C/[C@@H](C)[C@@H]4CC(C)=C[C@@]5(O[C@H](C[C@@](C)(O)C(=O)O)CC[C@H]5O)O4)O3)CC[C@H]2O[C@@H]1[C@@H](O)C[C@H](C)[C@H]1O[C@@]2(CCCCO2)CC[C@H]1C [okadaic acid, reference compound] | inhibited | –
